Measurements taken from US20100035871A1, “BENZOXAZINE DERIVATIVES AND USES THEREOF” (priority 2006, published 2010).
Counter-ions that a name gives are not always drawn.

SMILES	melting point
CCCN1CC(CN)Oc2c(-c3ccccc3Cl)cccc21 (racemic) (as salt: hydrochloride) [Example 21, 1-[8-(2-Chlorophenyl)-4-propyl-3,4-dihydro-2H-1,4-benzoxazin-2-yl]methanamine]	83 to 85 °C
NCC1CNc2cccc(-c3ccccc3C(F)(F)F)c2O1 (racemic) (as salt: hydrochloride) [Example 22, 1-{8-[2-(Trifluoromethyl)phenyl]-3,4-dihydro-2H-1,4-benzoxazin-2-yl}methanamine]	185 to 187 °C
NCC1CNc2cccc(-c3ccc(C(F)(F)F)cc3C(F)(F)F)c2O1 (racemic) (as salt: hydrochloride) [Example 23, 1-{8-[2,4-Bis(trifluoromethyl)phenyl]-3,4-dihydro-2H-1,4-benzoxazin-2-yl}methanamine]	192 to 194 °C
COc1ccc(-c2cccc3c2OC(CN)CN3)c(C)c1 (racemic) (as salt: hydrochloride) [Example 24, 1-[8-(4-Methoxy-2-methylphenyl)-3,4-dihydro-2H-1,4-benzoxazin-2-yl]methanamine]	230 to 232 °C
NCC1COc2cc(Cl)cc(-c3ccccc3C(F)(F)F)c2N1 (racemic) (as salt: hydrochloride) [Example 25, 1-{7-Chloro-5-[2-(trifluoromethyl)phenyl]-3,4-dihydro-2H-1,4-benzoxazin-3-yl}methanamine]	102 °C (dec.)
COc1ccc(-c2cc(Cl)cc3c2N(C)C(CN)CO3)c(C)c1 (racemic) (as salt: hydrochloride) [Example 28, 1-[7-chloro-5-(4-methoxy-2-methylphenyl)-4-methyl-3,4-dihydro-2H-1,4-benzoxazin-3-yl]methanamine]	106 °C (dec.)
NCC1COc2cc(Cl)cc(-c3ccccc3)c2N1 (racemic) (as salt: hydrochloride) [Example 29, 1-(7-chloro-5-phenyl-3,4-dihydro-2H-1,4-benzoxazin-3-yl)methanamine]	92 °C (dec.)
NCC1COc2cc(Cl)cc(-c3ccccc3F)c2N1 (racemic) (as salt: hydrochloride) [Example 33, 1-[7-chloro-5-(2-fluorophenyl)-3,4-dihydro-2H-1,4-benzoxazin-3-yl]methanamine]	95 °C (dec.)
NCC1COc2cc(Cl)cc(-c3ccccc3Cl)c2N1 (racemic) (as salt: hydrochloride) [Example 36, 1-[7-chloro-5-(2-chlorophenyl)-3,4-dihydro-2H-1,4-benzoxazin-3-yl]methanamine]	108 °C (dec.)
NCC1COc2cc(Cl)cc(-c3ccc(C(F)(F)F)cc3C(F)(F)F)c2N1 (racemic) (as salt: hydrochloride) [Example 38, 1-{5-[2,4-bis(trifluoromethyl)phenyl]-7-chloro-3,4-dihydro-2H-1,4-benzoxazin-3-yl}methanamine]	98 °C (dec.)
NCC1COc2cc(F)cc(-c3ccccc3C(F)(F)F)c2N1 (racemic) (as salt: hydrochloride) [Example 55, 1-{7-fluoro-5-[2-(trifluoromethyl)phenyl]-3,4-dihydro-2H-1,4-benzoxazin-3-yl}methanamine]	99 °C (dec.)
COc1ccc(-c2cc(F)cc3c2NC(CN)CO3)c(C)c1 (racemic) (as salt: hydrochloride) [Example 56, 1-[7-fluoro-5-(4-methoxy-2-methylphenyl)-3,4-dihydro-2H-1,4-benzoxazin-3-yl]methanamine]	82 °C (dec.)
NCC1COc2cc(F)cc(-c3ccccc3Cl)c2N1 (racemic) (as salt: hydrochloride) [Example 57, 1-[5-(2-chlorophenyl)-7-fluoro-3,4-dihydro-2H-1,4-benzoxazin-3-yl]methanamine]	86 °C (dec.)
Cc1ccccc1-c1cc(F)cc2c1NC(CN)CO2 (racemic) (as salt: hydrochloride) [Example 58, 1-[7-fluoro-5-(2-methylphenyl)-3,4-dihydro-2H-1,4-benzoxazin-3-yl]methanamine]	78 °C (dec.)

Other lines, results leading:

melting point	SMILES
101 °C (dec.)	COc1ccc(-c2cc(Cl)cc3c2NC(CN)CO3)cc1 (racemic) (as salt: hydrochloride) [Example 26, 1-[7-Chloro-5-(4-methoxyphenyl)-3,4-dihydro-2H-1,4-benzoxazin-3-yl]methanamine]
98 °C (dec.)	COc1ccc(-c2cc(Cl)cc3c2NC(CN)CO3)c(C)c1 (racemic) (as salt: hydrochloride) [Example 27, 1-[7-chloro-5-(4-methoxy-2-methylphenyl)-3,4-dihydro-2H-1,4-benzoxazin-3-yl]methanamine]
86 °C (dec.)	Cc1ccccc1-c1cc(Cl)cc2c1NC(CN)CO2 (racemic) (as salt: hydrochloride) [Example 30, 1-[7-chloro-5-(2-methylphenyl)-3,4-dihydro-2H-1,4-benzoxazin-3-yl]methanamine]
98 °C (dec.)	Cc1ccc(-c2cc(Cl)cc3c2NC(CN)CO3)c(C(F)(F)F)c1 (racemic) (as salt: hydrochloride) [Example 31, 1-{7-chloro-5-[4-methyl-2-(trifluoromethyl)phenyl]-3,4-dihydro-2H-1,4-benzoxazin-3-yl}methanamine]
105 °C (dec.)	COc1ccc(-c2cc(Cl)cc3c2NC(CN)CO3)c(Cl)c1 (racemic) (as salt: hydrochloride) [Example 32, 1-[7-chloro-5-(2-chloro-4-methoxyphenyl)-3,4-dihydro-2H-1,4-benzoxazin-3-yl]methanamine]
100 °C (dec.)	COc1ccccc1-c1cc(Cl)cc2c1NC(CN)CO2 (racemic) (as salt: hydrochloride) [Example 34, 1-[7-chloro-5-(2-methoxyphenyl)-3,4-dihydro-2H-1,4-benzoxazin-3-yl]methanamine]
102 °C (dec.)	Cc1cc(Cl)ccc1-c1cc(Cl)cc2c1NC(CN)CO2 (racemic) (as salt: hydrochloride) [Example 35, 1-[7-chloro-5-(4-chloro-2-methylphenyl)-3,4-dihydro-2H-1,4-benzoxazin-3-yl]methanamine]
95 °C (dec.)	NCC1COc2cc(Cl)cc(-c3ccc(Cl)cc3C(F)(F)F)c2N1 (racemic) (as salt: hydrochloride) [Example 37, 1-{7-chloro-5-[4-chloro-2-(trifluoromethyl)phenyl]-3,4-dihydro-2H-1,4-benzoxazin-3-yl}methanamine]
84 °C (dec.)	COc1ccc(-c2cc(F)cc3c2NC(CN)CO3)c(Cl)c1 (racemic) (as salt: hydrochloride) [Example 59, 1-[5-(2-chloro-4-methoxyphenyl)-7-fluoro-3,4-dihydro-2H-1,4-benzoxazin-3-yl]methanamine]
86 °C (dec.)	Cc1ccc(-c2cc(F)cc3c2NC(CN)CO3)c(C(F)(F)F)c1 (racemic) (as salt: hydrochloride) [Example 60, 1-{7-fluoro-5-[4-methyl-2-(trifluoromethyl)phenyl]-3,4-dihydro-2H-1,4-benzoxazin-3-yl}methanamine]
72 °C (dec.)	COc1ccc(-c2cc(F)cc3c2NC(CN)CO3)cc1 (racemic) (as salt: hydrochloride) [Example 61, 1-[7-fluoro-5-(4-methoxyphenyl)-3,4-dihydro-2H-1,4-benzoxazin-3-yl]methanamine]
